Assay results: patent US20140004079A1, “IN VIVO DENDRITIC CELL T[…]” (Agency for Science, Technology and Research, priority 2012, published 2014)
Entries after “also recorded” stand apart in the source; their conditions may differ.

Key:
Assay type in all cases: cell-based, human
healthy donor CD14 MN = test: Cross-presentation by healthy donor CD14 MN loaded with HBV antigen at day zero and differentiated to moDC, IFN-γ elispot; details: differentiation alone, antigen captured on day zero
Procedure: (§1) CD14+ MN were isolated from healthy donors and chronic HBV patients by FACs sorting or positive selection using CD14 micobeads (greater than 90% purity; Miltenyi Biothech). Purified monocytes were then cultured in RPMI 1640 supplemented with 10% heat-inactivated FBS, 20 mM HEPES, 0.5 mM sodium pyruvate. 100 U/ml penicillin, 100 μg/ml streptomycin, MeM amino acids, Glutamax, MeM nonessential amino acids, 55 μM 2-mercaptoethanol (Invitrogen). GM-CSF+IL-4 moDC were made by culturing CD14 MN in 50 ng/ml (1500 U/ml) IL-4 and 50 ng/ml (750 U/ml) GM-CSF (R&D systems) for 6 d. GM-CSF+IL-15 (R&D Systems) moDC were made by culturing CD14 MN in 100 ng/ml (1500 U/ml) GM-CSF+200 ng/ml IL-15. Half of the media was removed after 3 d and replaced with complete RPMI containing cytokines. After 6 d of incubation, moDC were stained with CD14-PerCp (Miltenyi Biotech), HLA-DR alexa700 (eBioscience), CD80-FITC (BD Bioscience) and CD86-APC (Biolegend) to confirm differentiation.
(§2) Six day moDC were cultured overnight in media alone or activated with 10 μg/ml polyI:C or 0.1 ug/ml LPS (Invivogen)+50 ng/ml soluble HEK-derived CD40L (R&D Systems). Following overnight incubation, moDC were washed three times with HBSS and co-cultured at 2:1 effector:target ratio (10,000 T cells:5000 moDC) with CD8 HBs183-91T or HBs171-80-specific TCR redirected T cells for IFN-γ elispot. […]

[1] = test system: sorted APC populations from chronic HBV patients; test: Ex vivo antigen presentation assay: sorted APCs activated overnight, co-cultured with HBsAg-specific TCR redirected T cells, IFN-γ Elispot; details: for cross-presentation of circulating HBsAg (T cell activation): mDC, CD14 MN, CD16 MN or B cells of chronic HBV patients, short-term activation, HBsAg-specific TCR transduced T cells
Procedure: Sorted APC populations; CD11c DC, CD141 DC, CD123 pDC, CD14 MN, CD16 MN and CD20 B cells were cultured overnight in media alone or under activating conditions +/−[…] recombinant HBsAg (Kindly provided by DynaVax). Cells were activated with 10 μg/ml polyI:C (TLR-3), 5 μM CpG ODN2216 (TLR-9), 1 μg/ml LPS (TLR-4), 5 μg/ml Imiquimod (TLR-7), 1 μg/ml ssRNA40 (TLR-8) (InvivoGen), 1000 U/ml IFN-α or 1000 U/ml IFN-γ (R&D systems). Following overnight incubation, APC populations were thoroughly washed and transferred to anti-IFN-γ coated Elispot plates and co-cultured with CD8 s183-TCR or s171-TCR redirected T cells at 5:1 E:T ratio (normally 5,000 APCs/well but as low as 1000 CD141 DC/well) for 24 h. APCs pulsed with 5 μg/ml HBs183-91(FLLTRILTI), HBs171-80 (FLGPLLVLQA) or HBc18-27 ([…]) peptide served as positive control for T cell activation. IFN-γ Elispot was performed as described previously in Tan et al 2008, using 5 μg/ml of 1-DIK for capture and 0.5 μg/ml 7B6-1-Biotin plus Streptavidin-ALP for detection (Mabtec) (Tan, A. T, Loggi, E., Boni, C., Chia, A. Gehring, A. J., Sastry, K. S., Goh, V., Fisicaro, P., Andreone, P., Brander, C., et al. 2008. Host ethnicity and virus genotype shape the hepatitis B virus-specific T-cell repertoire. J. Virol 82: 10986-10997). Elispot plates were developed and analyzed using CTL Immunospot analyzer. Cutoff values for positive responses were set according to cumulative data from healthy donors and HLA mismatched chronic HBV responses (data not shown). Wells were considered positive if responses were above 20 spot forming units/50,000 T cells.
APC populations were sorted from 7 HLA-A2+ chronic HBV patients or healthy donors to greater than 98% purity. TCR transduced T cells were then cultured at 5:1 effector:target ratio with each APC population (typically 5,000 APC/well for Elispot and 10,000 APC/well for intracellular cytokine staining) and T cell activation was monitored using IFN-γ intracellular cytokine staining or IFN-γ Elispot. For intracellular cytokine staining, cells were co-cultured overnight in V-bottom 96 well plates in 2 μg/ml brefeldin A. Cells were labeled with viability dye, stained with CD8-Horizon V500 (BD Biosciences) and fixed in cytofix/cytoperm (BD Biosciences). Cells were then stained with IFN-γ-Horizon V450 (BD Biosciences) to monitor T cell activation. As positive control, CD14 MN were pulsed with 5 μg/ml HBs183-91 or HBc18-27 peptide for 1 h and washed. IFN-γ Elispot was performed as described previously using 5 μg/ml of 1-DK1 for capture and 0.5 μg/ml 7B6-1-Biotin plus Streptavidin-ALP for detection (Mabtec). Wells were considered positive if responses were above 20 spot forming units/25,000 T cells. An HLA-A2+ healthy donor was included in each experiment to determine the background for each experiment. HLA-A2− donors were also tested to confirm specificity and restriction of the transduced T cells (data not shown).

[2] = test system: CD14 MN from chronic HBV patients; test: Cross-presentation of in vivo captured HBsAg by monocyte-derived DC from chronic HBV patients, IFN-γ elispot; details: moDC activated overnight, s183-TCR and s171-TCR CD8 T cells
Procedure: as §1, §2

granulocyte-macrophage colony-stimulating factor [GM-CSF]
cross-presentation of HBV antigen to virus-specific CD8 T cells after differentiation (healthy donor CD14 MN; 3 d): resulted in cross-presentation of HBV antigen

Polyinosinic-polycytidylic acid [polyI:C, reference compound]
cross-presentation of exogenously loaded recombinant HBsAg by CD141 DC ([1]; CD141 DC loaded with rHBsAg and stimulated): efficiently cross-presented recombinant HBsAg
activation of CD8 T cells by activated CD141 DC directly ex vivo ([1]; CD141 DC of chronic HBV patients, in vivo captured HBsAg): neither non-activated nor polyI:C activated CD141 DC from chronic HBV patients stimulated CDS T cells; also recorded: neither non-activated nor polyI:C activated CD141 DC from chronic HBV patients activated CD8 T cells
effect of moDC activation on T cell response [2]: increase the T cell response

interferon-α [IFN-α]
cross-presentation of circulating HBsAg (T cell activation) [1]: T cell activation was not observed
activation of HBsAg-specific T cells by activated pDC ex vivo ([1]; pDC of chronic HBV patients, in vivo captured HBsAg): Neither resting pDC nor pDC activated with a panel of TLR ligands and IFN-α activated HBsAg-specific T cells; also recorded: none of these conditions resulted in HBsAg-specific T cell activation

IFN-γ: cytokine, 1000 U/ml for APC activation
cross-presentation of circulating HBsAg (T cell activation) [1]: T cell activation was not observed

B1: IL-32: cytokine, 100 ng/ml IL-32 for 6 d (protein, UniProt P24001 31-234, looked up)
Interleukin-32: AWVSACDTEDTVGHLGPWRDKDPALWCQLCLSSQHQAIERFYDKMQNAESGRGQVMSSLAELEDDFKEGYLETVAAYYEEQHPELTPLLEKERDGLRCRGNRSPVPDVEDPATEEPGESFCDKVMRWFQAMLQRLQTWWHGVLAWVKEKVVALVHAVQALWKQFQSFCCSLSELFMSSFQSYGAPRGDKEELTPQKCSEPQSSK
cross-presentation of HBV antigen to virus-specific CD8 T cells after differentiation (healthy donor CD14 MN; 6 d): resulted in cross-presentation of HBV antigen
